# Measured values as given in ChEMBL document CHEMBL5512671, “Structure-Based Optimization of Novel Sterol 24-C-Methyltransferase Inhibitors for the Treatment of Candida albicans Infections” (J Med Chem, 2024).
# Columns and labels:
# Candida albicans [1] = test: Antifungal activity against Candida albicans SC5314 assessed as inhibition of fungal growth incubated for 24 hrs by CLSI protocol based broth microdilution method; assay type: functional
# Candida albicans [2] = test: Antifungal activity against Candida albicans SC5314 assessed as inhibition of hyphae growth incubated for 24 hrs by CLSI protocol based broth microdilution method; assay type: functional
# [3] = Cytotoxicity against human BEAS-2B cells incubated for 48 hrs by CCK-8 method; assay type: toxicity, cell-based
# [4] = Cytotoxicity against human HUVEC cells incubated for 48 hrs by CCK-8 method; assay type: toxicity, cell-based
# [5] = Hemolytic activity in mouse RBC assessed as hemolysis at 2 to 32 ug/ml incubated for 60 mins by absorbance based analysis relative to control; assay type: toxicity, cell-based, Erythrocyte; conditions: mouse red blood cells, at 2 to 32 µg/mL, dose 2-32 µg/ml, read-out: Activity
SMILES,MIC80 (Candida albicans [1]) [µg/mL],MIC50 (Candida albicans [2]) [µg/mL],EC50 at 48 h [3] [µg/mL],EC50 at 48 h [4] [µg/mL],hemolysis at 1 h [5] [%]
Cc1c(-n2c(-c3ccc(-c4ccccc4)cc3)cs/c2=N\c2ccccc2)c(=O)n(-c2ccccc2)n1C,> 128,> 128,,,
Cc1c(-n2c(-c3ccc(N(C)C)cc3)cs/c2=N\c2ccccc2)c(=O)n(-c2ccccc2)n1C,> 128,2,> 50,> 50,< 1
Cc1c(-n2c(-c3ccc4ccccc4c3)cs/c2=N\c2ccc3ccccc3c2)c(=O)n(-c2ccccc2)n1C,> 128,0.5,> 50,> 50,< 1
Cc1c(-n2c(-c3cccc([N+](=O)[O-])c3)cs/c2=N\c2ccc(Br)cc2)c(=O)n(-c2ccccc2)n1C,> 128,> 128,,,
COc1ccc(-c2cs/c(=N\c3ccccc3)n2-c2c(C)n(C)n(-c3ccccc3)c2=O)cc1,> 128,> 128,,,
Cc1c(-n2c(-c3ccc(Br)cc3)cs/c2=N\c2ccc(Br)cc2)c(=O)n(-c2ccccc2)n1C,> 128,1,> 50,> 50,< 1
Cc1c(-n2c(-c3ccc(C(F)(F)F)cc3)cs/c2=N\c2ccccc2)c(=O)n(-c2ccccc2)n1C,> 128,4,,,
Cc1c(-n2c(-c3ccccn3)cs/c2=N\c2ccc(Br)cc2)c(=O)n(-c2ccccc2)n1C,> 128,> 128,,,
Cc1c(-n2c(-c3ccccc3)cs/c2=N\c2ccccc2)c(=O)n(-c2ccccc2)n1C,> 128,> 128,,,
Cc1c(-n2c(-c3ccc(S(C)(=O)=O)cc3)cs/c2=N\c2ccccc2)c(=O)n(-c2ccccc2)n1C,> 128,> 128,,,
Cc1c(-n2c(-c3ccc4ccccc4c3)cs/c2=N\c2cccnc2)c(=O)n(-c2ccccc2)n1C,> 128,32,,,
Cc1c(-n2c(-c3ccc(I)cc3)cs/c2=N\c2ccccc2)c(=O)n(-c2ccccc2)n1C,> 128,> 128,,,
Cc1c(-n2c(-c3ccc(Br)cc3)cs/c2=N\c2cccnc2)c(=O)n(-c2ccccc2)n1C,> 128,> 128,,,
Cc1c(-n2c(-c3ccccc3Cl)cs/c2=N\c2ccccc2)c(=O)n(-c2ccccc2)n1C,> 128,> 128,,,
Cc1c(-n2c(-c3ccc(Cl)cc3)cs/c2=N\c2ccc(Br)cc2)c(=O)n(-c2ccccc2)n1C,> 128,8,,,
Cc1c(-n2c(-c3cccc(N)c3)cs/c2=N\c2ccccc2)c(=O)n(-c2ccccc2)n1C,> 128,> 128,,,
Cc1c(-n2c(-c3cccnc3)cs/c2=N\c2ccccc2)c(=O)n(-c2ccccc2)n1C,> 128,> 128,,,
Cc1ccc(-c2cs/c(=N\c3ccccc3)n2-c2c(C)n(C)n(-c3ccccc3)c2=O)cc1,> 128,4,,,
Cc1c(-n2c(C3CC3)cs/c2=N\c2ccccc2)c(=O)n(-c2ccccc2)n1C,> 128,> 128,,,
Cc1c(-n2c(-c3ccccn3)cs/c2=N\c2ccccc2)c(=O)n(-c2ccccc2)n1C,> 128,> 128,,,
Cc1c(-n2c(-c3ccc(F)cc3)cs/c2=N\c2ccccc2)c(=O)n(-c2ccccc2)n1C,> 128,> 128,,,

SMILES,MIC80 (Candida albicans [1]) [µg/mL],MIC50 (Candida albicans [2]) [µg/mL],EC50 at 48 h [3] [µg/mL],EC50 at 48 h [4] [µg/mL],hemolysis at 1 h [5] [%]
Cc1c(-n2c(-c3ccc4ccccc4c3)cs/c2=N\c2cccc(OCc3ccccc3)c2)c(=O)n(-c2ccccc2)n1C,> 128,> 128,,,
COc1ccc2cc(-c3cs/c(=N\c4ccccc4)n3-c3c(C)n(C)n(-c4ccccc4)c3=O)ccc2c1,> 128,> 128,,,
Cc1c(-n2c(-c3cccc([N+](=O)[O-])c3)cs/c2=N\c2ccccc2)c(=O)n(-c2ccccc2)n1C,> 128,> 128,,,
Cc1c(-n2c(-c3ccc4ccccc4c3)cs/c2=N\c2ccc(C(F)(F)F)cc2)c(=O)n(-c2ccccc2)n1C,> 128,2,> 50,> 50,< 1
Cc1c(-n2c(-c3cc4ccccc4o3)cs/c2=N\c2ccccc2)c(=O)n(-c2ccccc2)n1C,> 128,2,,,
Cc1c(-n2c(-c3cccs3)cs/c2=N\c2ccccc2)c(=O)n(-c2ccccc2)n1C,> 128,> 128,,,
Cc1c(-n2c(-c3ccc(Br)cc3)cs/c2=N\c2ccc(C(F)(F)F)cc2)c(=O)n(-c2ccccc2)n1C,> 128,8,,,
Cc1c(-n2c(-c3ccc(F)cc3)cs/c2=N\c2ccc(Br)cc2)c(=O)n(-c2ccccc2)n1C,> 128,> 128,,,
Cc1c(-n2c(-c3ccc4ccccc4c3)cs/c2=N\c2ccc(Br)cc2)c(=O)n(-c2ccccc2)n1C,> 128,2,> 50,> 50,< 1
Cc1c(-n2c(-c3cccc(F)c3)cs/c2=N\c2ccccc2)c(=O)n(-c2ccccc2)n1C,> 128,> 128,,,
Cc1c(-n2c(-c3ccncc3)cs/c2=N\c2ccccc2)c(=O)n(-c2ccccc2)n1C,> 128,> 128,,,
Cc1c(-n2c(-c3ccc4ccc5cccc6ccc3c4c56)cs/c2=N\c2ccccc2)c(=O)n(-c2ccccc2)n1C,> 128,> 128,,,
COc1ccc(/N=c2\scc(-c3ccc(Br)cc3)n2-c2c(C)n(C)n(-c3ccccc3)c2=O)cc1,> 128,16,,,
Cc1c(-n2c(-c3cccc(Cl)c3)cs/c2=N\c2ccccc2)c(=O)n(-c2ccccc2)n1C,> 128,> 128,,,
Cc1c(-n2c(C34CC5CC(CC(C5)C3)C4)cs/c2=N\c2ccccc2)c(=O)n(-c2ccccc2)n1C,> 128,> 128,,,
Cc1c(-n2c(-c3cccnc3)cs/c2=N\c2ccc(Br)cc2)c(=O)n(-c2ccccc2)n1C,> 128,> 128,,,
Cc1c(-n2c(-c3ccc(Cl)cc3Cl)cs/c2=N\c2ccc(Br)cc2)c(=O)n(-c2ccccc2)n1C,> 128,> 128,,,
Cc1c(-n2c(-c3ccc(Cl)cc3)cs/c2=N\c2ccccc2)c(=O)n(-c2ccccc2)n1C,> 128,4,,,
Cc1c(-n2c(-c3nccs3)cs/c2=N\c2ccccc2)c(=O)n(-c2ccccc2)n1C,> 128,> 128,,,
COc1ccc(/N=c2\scc(-c3ccc4ccccc4c3)n2-c2c(C)n(C)n(-c3ccccc3)c2=O)cc1,> 128,4,,,
COc1cc(-c2cs/c(=N\c3ccccc3)n2-c2c(C)n(C)n(-c3ccccc3)c2=O)cc(OC)c1OC,> 128,> 128,,,

SMILES,MIC80 (Candida albicans [1]) [µg/mL],MIC50 (Candida albicans [2]) [µg/mL],EC50 at 48 h [3] [µg/mL],EC50 at 48 h [4] [µg/mL],hemolysis at 1 h [5] [%]
Cc1c(-[n+]2c(-c3ccc(Br)cc3)csc2N(C)c2ccccc2)c(=O)n(-c2ccccc2)n1C.[I-],> 128,> 128,,,
Cc1c(-n2c(C3CCN(C(=O)OC(C)(C)C)CC3)cs/c2=N\c2ccccc2)c(=O)n(-c2ccccc2)n1C,> 128,> 128,,,
Cc1c(-n2c(-c3ccc(O)cc3)cs/c2=N\c2ccc(Br)cc2)c(=O)n(-c2ccccc2)n1C,> 128,> 128,,,
C=CC(=O)Nc1cccc(-c2cs/c(=N\c3ccccc3)n2-c2c(C)n(C)n(-c3ccccc3)c2=O)c1,> 128,> 128,,,
Cc1c(-n2c(-c3ccc(C(F)(F)F)cc3)cs/c2=N\c2ccc(Br)cc2)c(=O)n(-c2ccccc2)n1C,> 128,> 128,,,
Cc1c(-n2c(-c3ccc4ccccc4c3)cs/c2=N\c2cccc3ccccc23)c(=O)n(-c2ccccc2)n1C,> 128,0.5,> 50,> 50,< 1
Cc1c(-n2c(-c3ccc(OC(F)(F)F)cc3)cs/c2=N\c2ccccc2)c(=O)n(-c2ccccc2)n1C,> 128,8,,,
Cc1c(-n2c(-c3cc4ccccc4oc3=O)cs/c2=N\c2ccccc2)c(=O)n(-c2ccccc2)n1C,> 128,> 128,,,
Cc1c(-n2c(-c3ccc(O)c(C=O)c3)cs/c2=N\c2ccccc2)c(=O)n(-c2ccccc2)n1C,> 128,> 128,,,
Cc1c(-n2c(-c3ccc(C#N)cc3)cs/c2=N\c2ccccc2)c(=O)n(-c2ccccc2)n1C,> 128,> 128,,,
COc1cccc(-c2cs/c(=N\c3ccccc3)n2-c2c(C)n(C)n(-c3ccccc3)c2=O)c1,> 128,> 128,,,
Cc1c(-n2c(-c3ccc(Br)cc3)cs/c2=N\c2ccc3ccccc3c2)c(=O)n(-c2ccccc2)n1C,> 128,1,> 50,> 50,< 1
CC(=O)c1cs/c(=N\c2ccccc2)n1-c1c(C)n(C)n(-c2ccccc2)c1=O,> 128,> 128,,,
Cc1c(-n2c(-c3ccc(O)cc3)cs/c2=N\c2ccccc2)c(=O)n(-c2ccccc2)n1C,> 128,> 128,,,
Cc1c(-n2c(-c3ccncc3)cs/c2=N\c2ccc(Br)cc2)c(=O)n(-c2ccccc2)n1C,> 128,> 128,,,
Cc1c(-n2c(-c3ccc(Cl)cc3Cl)cs/c2=N\c2ccccc2)c(=O)n(-c2ccccc2)n1C,> 128,> 128,,,
Cc1c(-n2c(-c3ccc(C#N)cc3)cs/c2=N\c2ccc(Br)cc2)c(=O)n(-c2ccccc2)n1C,> 128,> 128,,,
Cc1c(-n2c(-c3ccc(O)c(C=O)c3)cs/c2=N\c2ccc(Br)cc2)c(=O)n(-c2ccccc2)n1C,> 128,> 128,,,
C#CCOc1ccc(-c2cs/c(=N\c3ccccc3)n2-c2c(C)n(C)n(-c3ccccc3)c2=O)cc1,> 128,> 128,,,
